Reference: ChEMBL document CHEMBL4321812, “Structure-based rational design of staurosporine-based fluorescent probe with broad-ranging kinase affinity for kinase panel application” (Bioorg Med Chem Lett, 2019)

Experiments:
[1] = biological target: Serine/threonine-protein kinase 38-like (Homo sapiens, UniProt Q9Y2H1); experiment: Binding affinity to recombinant full-length N-terminal His-FLAG-GST-tagged STK38L (unknown origin) expressed in baculovirus infected Sf9 insect cells incubated for 1 hr by TR-FRET assay
[2] = biological target: Tyrosine-protein kinase Yes (Homo sapiens, UniProt P07947); experiment: Binding affinity to recombinant full-length N-terminal His-FLAG-GST-tagged YES1 (unknown origin) expressed in baculovirus infected Sf9 insect cells incubated for 1 hr by TR-FRET assay
Sequence of Tyrosine-protein kinase Yes (P07947 whole entry, the tested form may be a part): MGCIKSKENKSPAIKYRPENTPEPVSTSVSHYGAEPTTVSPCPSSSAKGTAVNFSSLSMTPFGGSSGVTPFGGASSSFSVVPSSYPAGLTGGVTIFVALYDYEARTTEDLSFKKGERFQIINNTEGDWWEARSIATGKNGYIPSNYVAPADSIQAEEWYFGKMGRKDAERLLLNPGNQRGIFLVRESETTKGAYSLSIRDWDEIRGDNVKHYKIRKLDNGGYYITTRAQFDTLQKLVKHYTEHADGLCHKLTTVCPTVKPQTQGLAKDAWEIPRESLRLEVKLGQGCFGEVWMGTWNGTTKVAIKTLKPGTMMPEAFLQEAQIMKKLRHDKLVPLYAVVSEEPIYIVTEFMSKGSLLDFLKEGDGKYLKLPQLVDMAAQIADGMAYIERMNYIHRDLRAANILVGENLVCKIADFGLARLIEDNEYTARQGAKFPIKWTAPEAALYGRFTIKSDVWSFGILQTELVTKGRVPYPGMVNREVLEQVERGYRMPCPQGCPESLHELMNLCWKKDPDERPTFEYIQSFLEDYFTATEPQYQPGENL

[3] = biological target: Fibroblast growth factor receptor 1 (Homo sapiens, UniProt P11362); experiment: Binding affinity to recombinant N-terminal His-FLAG-GST-tagged FGFR1 (unknown origin) (396 to 820 residues) expressed in baculovirus infected Sf9 insect cells incubated for 1 hr by TR-FRET assay
[4] = biological target: Serine/threonine-protein kinase ULK2 (Homo sapiens, UniProt Q8IYT8); experiment: Binding affinity to recombinant N-terminal His-FLAG-GST-tagged ULK2 (unknown origin) (1 to 478 residues) expressed in baculovirus infected Sf9 insect cells incubated for 1 hr by TR-FRET assay
Sequence of Serine/threonine-protein kinase ULK2 (Q8IYT8 whole entry, the tested form may be a part): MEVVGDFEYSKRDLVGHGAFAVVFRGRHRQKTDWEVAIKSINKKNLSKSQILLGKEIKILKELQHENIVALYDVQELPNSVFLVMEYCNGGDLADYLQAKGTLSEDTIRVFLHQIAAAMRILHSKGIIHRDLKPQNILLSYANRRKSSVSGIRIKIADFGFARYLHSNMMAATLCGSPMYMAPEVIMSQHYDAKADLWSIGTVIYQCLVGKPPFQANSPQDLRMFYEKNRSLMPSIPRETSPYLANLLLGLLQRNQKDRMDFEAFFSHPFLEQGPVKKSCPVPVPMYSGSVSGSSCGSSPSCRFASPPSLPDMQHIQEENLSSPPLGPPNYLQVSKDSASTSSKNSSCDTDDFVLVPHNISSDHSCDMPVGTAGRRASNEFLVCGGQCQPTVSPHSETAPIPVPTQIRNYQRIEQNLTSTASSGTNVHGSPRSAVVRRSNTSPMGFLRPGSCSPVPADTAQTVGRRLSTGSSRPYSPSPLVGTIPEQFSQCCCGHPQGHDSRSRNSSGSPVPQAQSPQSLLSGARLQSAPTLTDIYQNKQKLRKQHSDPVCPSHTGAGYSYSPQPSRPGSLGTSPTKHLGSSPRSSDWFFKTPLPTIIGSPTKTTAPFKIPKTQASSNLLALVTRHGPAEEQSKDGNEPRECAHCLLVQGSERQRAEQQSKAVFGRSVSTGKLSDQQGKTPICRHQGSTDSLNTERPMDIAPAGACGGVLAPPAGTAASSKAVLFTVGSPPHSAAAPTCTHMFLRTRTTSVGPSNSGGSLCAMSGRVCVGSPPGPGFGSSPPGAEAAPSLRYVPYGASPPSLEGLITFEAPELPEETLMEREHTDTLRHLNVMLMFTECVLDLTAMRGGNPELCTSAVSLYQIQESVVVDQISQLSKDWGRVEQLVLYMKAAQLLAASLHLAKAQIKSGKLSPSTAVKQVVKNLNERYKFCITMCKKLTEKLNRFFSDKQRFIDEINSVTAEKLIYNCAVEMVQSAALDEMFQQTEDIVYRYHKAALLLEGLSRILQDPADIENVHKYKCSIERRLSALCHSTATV

[5] = biological target: Tyrosine-protein kinase ABL2 (Homo sapiens, UniProt P42684); experiment: Binding affinity to recombinant full-length N-terminal His-FLAG-GST-tagged ABL2 (unknown origin) (2 to 52 and 74 to 1182 residues) expressed in baculovirus infected Sf9 insect cells incubated for 1 hr by TR-FRET assay
[6] = biological target: Serine/threonine-protein kinase 24 (Homo sapiens, UniProt Q9Y6E0); experiment: Binding affinity to recombinant full-length N-terminal His-FLAG-tagged STK24 (unknown origin) expressed in baculovirus infected Sf9 insect cells incubated for 1 hr by TR-FRET assay
[7] = biological target: Serine/threonine-protein kinase 17A (Homo sapiens, UniProt Q9UEE5); experiment: Binding affinity to recombinant full length N-terminal His-FLAG-GST-tagged STK17A (unknown origin) expressed in baculovirus infected Sf9 insect cells incubated for 1 hr by TR-FRET assay
Sequence of Serine/threonine-protein kinase 17A (Q9UEE5 whole entry, the tested form may be a part): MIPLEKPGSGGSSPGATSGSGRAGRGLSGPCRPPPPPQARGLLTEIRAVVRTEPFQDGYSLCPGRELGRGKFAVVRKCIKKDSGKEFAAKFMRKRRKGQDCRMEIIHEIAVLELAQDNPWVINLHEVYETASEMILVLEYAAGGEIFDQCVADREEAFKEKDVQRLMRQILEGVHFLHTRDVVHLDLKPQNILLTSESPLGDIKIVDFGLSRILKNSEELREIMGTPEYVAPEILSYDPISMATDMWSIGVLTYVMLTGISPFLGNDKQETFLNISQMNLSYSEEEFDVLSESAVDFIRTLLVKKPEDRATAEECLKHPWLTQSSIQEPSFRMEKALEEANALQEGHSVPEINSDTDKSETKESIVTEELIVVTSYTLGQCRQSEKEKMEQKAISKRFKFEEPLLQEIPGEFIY

[8] = biological target: Epithelial discoidin domain-containing receptor 1 (Homo sapiens, UniProt Q08345); experiment: Binding affinity to recombinant N-terminal His-FLAG-GST-tagged DDR1 (unknown origin) (444 to 876 residues) expressed in baculovirus infected Sf9 insect cells incubated for 1 hr by TR-FRET assay
[9] = biological target: Mitogen-activated protein kinase kinase kinase 14 (Homo sapiens, UniProt Q99558); experiment: Binding affinity to recombinant N-terminal His-FLAG-GST-tagged MAP3K14 (unknown origin) (319 to 947 residues) expressed in baculovirus infected Sf9 insect cells incubated for 1 hr by TR-FRET assay
[10] = biological target: Tyrosine-protein kinase Fgr (Homo sapiens, UniProt P09769); experiment: Binding affinity to recombinant full-length N-terminal His-FLAG-tagged FGR (unknown origin) expressed in baculovirus infected Sf9 insect cells incubated for 1 hr by TR-FRET assay
[11] = biological target: Macrophage colony-stimulating factor 1 receptor (Homo sapiens, UniProt P07333); experiment: Binding affinity to recombinant N-terminal His-FLAG-GST-tagged CSF1R (unknown origin) (538 to 972 residues) expressed in baculovirus infected Sf9 insect cells incubated for 1 hr by TR-FRET assay
[12] = biological target: Tyrosine-protein kinase FRK (Homo sapiens, UniProt P42685); experiment: Binding affinity to recombinant full-length N-terminal His-FLAG-GST-tagged FRK (unknown origin) (223 to 505 residues) expressed in baculovirus infected Sf9 insect cells incubated for 1 hr […] by TR-FRET assay
[13] = biological target: cAMP-dependent protein kinase catalytic subunit gamma (Homo sapiens, UniProt P22612); experiment: Binding affinity to recombinant full-length N-terminal His-FLAG-GST-tagged PRKACG (unknown origin) expressed in baculovirus infected Sf9 insect cells incubated for 1 hr by TR-FRET assay
Sequence of cAMP-dependent protein kinase catalytic subunit gamma (P22612 whole entry, the tested form may be a part): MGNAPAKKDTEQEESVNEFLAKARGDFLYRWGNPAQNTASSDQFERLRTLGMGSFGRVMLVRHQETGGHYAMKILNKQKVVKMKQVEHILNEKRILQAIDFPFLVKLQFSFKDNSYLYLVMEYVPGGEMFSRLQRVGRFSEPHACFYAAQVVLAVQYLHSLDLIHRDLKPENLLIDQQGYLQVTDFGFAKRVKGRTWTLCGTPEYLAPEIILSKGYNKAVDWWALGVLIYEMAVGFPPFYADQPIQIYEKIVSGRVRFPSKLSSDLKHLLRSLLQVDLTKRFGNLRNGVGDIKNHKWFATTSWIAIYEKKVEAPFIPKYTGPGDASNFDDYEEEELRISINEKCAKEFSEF

[14] = biological target: Tyrosine-protein kinase Mer (Homo sapiens, UniProt Q12866); experiment: Binding affinity to recombinant full-length N-terminal His-FLAG-GST-tagged MERTK (unknown origin) (528 to 999 residues) expressed in baculovirus infected Sf9 insect cells incubated for 1 hr by TR-FRET assay
Sequence of Tyrosine-protein kinase Mer (Q12866 whole entry, the tested form may be a part): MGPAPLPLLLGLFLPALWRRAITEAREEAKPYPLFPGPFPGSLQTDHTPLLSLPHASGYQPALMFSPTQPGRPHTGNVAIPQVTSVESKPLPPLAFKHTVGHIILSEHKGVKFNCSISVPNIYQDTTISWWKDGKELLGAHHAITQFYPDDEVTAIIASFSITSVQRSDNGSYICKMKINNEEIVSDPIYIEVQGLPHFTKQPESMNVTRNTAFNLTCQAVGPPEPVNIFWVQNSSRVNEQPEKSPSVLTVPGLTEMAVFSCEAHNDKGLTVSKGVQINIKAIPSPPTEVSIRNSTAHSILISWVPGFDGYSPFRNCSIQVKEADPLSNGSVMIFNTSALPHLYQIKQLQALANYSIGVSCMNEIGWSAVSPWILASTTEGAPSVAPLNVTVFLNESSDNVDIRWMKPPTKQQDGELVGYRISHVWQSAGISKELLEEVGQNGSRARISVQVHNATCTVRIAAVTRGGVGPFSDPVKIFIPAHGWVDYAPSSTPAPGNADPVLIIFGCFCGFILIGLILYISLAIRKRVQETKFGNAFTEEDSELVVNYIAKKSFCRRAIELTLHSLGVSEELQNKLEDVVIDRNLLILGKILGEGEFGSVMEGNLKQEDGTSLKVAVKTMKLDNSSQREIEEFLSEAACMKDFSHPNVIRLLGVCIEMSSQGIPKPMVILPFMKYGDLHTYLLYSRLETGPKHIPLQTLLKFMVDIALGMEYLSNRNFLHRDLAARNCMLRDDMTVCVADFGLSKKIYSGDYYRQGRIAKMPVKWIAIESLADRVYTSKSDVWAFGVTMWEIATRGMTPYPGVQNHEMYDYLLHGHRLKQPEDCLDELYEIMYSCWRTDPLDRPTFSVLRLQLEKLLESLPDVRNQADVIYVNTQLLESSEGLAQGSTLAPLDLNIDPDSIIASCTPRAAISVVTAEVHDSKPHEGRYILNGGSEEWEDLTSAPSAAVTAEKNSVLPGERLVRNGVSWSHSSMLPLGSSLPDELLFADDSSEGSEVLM

CDK7/Cyclin H/MNAT1 = CDK7/Cyclin H/MNAT1 (Homo sapiens, UniProt P50613); experiment: Binding affinity to recombinant human full length N-terminal GST-tagged and N-terminal GST-tagged CDK7/cyclinH/MAT1 expressed in baculovirus expression system using CTD3 peptide as substrate incubated for 1 hr by TR-FRET assay
[15] = biological target: Hepatocyte growth factor receptor (Homo sapiens, UniProt P08581); experiment: Binding affinity to recombinant full-length N-terminal His-FLAG-GST-tagged MET (unknown origin) (956 to 1390 residues) expressed in baculovirus infected Sf9 insect cells incubated for 1 hr by TR-FRET assay
[16] = biological target: Mitogen-activated protein kinase 10 (Homo sapiens, UniProt P53779); experiment: Binding affinity to recombinant full-length N-terminal His-FLAG-GST-tagged MAPK10 (unknown origin) expressed in baculovirus infected Sf9 insect cells incubated for 1 hr by TR-FRET assay
[17] = biological target: Serine/threonine-protein kinase TBK1 (Homo sapiens, UniProt Q9UHD2); experiment: Binding affinity to recombinant human full length N-terminal GST-tagged TBK1 expressed in baculovirus expression system using CKtide as substrate incubated for 1 hr by TR-FRET assay
[18] = biological target: Serine/threonine-protein kinase 4 (Homo sapiens, UniProt Q13043); experiment: Binding affinity to recombinant full-length N-terminal His-FLAG-GST-tagged STK4 (unknown origin) expressed in baculovirus infected Sf9 insect cells incubated for 1 hr by TR-FRET assay
CDK8/Cyclin C = CDK8/Cyclin C (Homo sapiens, UniProt P49336); experiment: Binding affinity to recombinant human full length N-terminal GST-tagged CDK8 co-expressed with N-terminal GST-tagged CyclinC expressed in baculovirus expression system using RNA polymerase peptide as substrate incubated for 1 hr by TR-FRET assay
[19] = biological target: Ribosomal protein S6 kinase alpha-3 (Homo sapiens, UniProt P51812); experiment: Binding affinity to recombinant human full length N-terminal GST-tagged RPS6KA3 expressed in baculovirus expression system using S6K peptide as substrate incubated for 1 hr by TR-FRET assay
Sequence of Ribosomal protein S6 kinase alpha-3 (P51812 whole entry): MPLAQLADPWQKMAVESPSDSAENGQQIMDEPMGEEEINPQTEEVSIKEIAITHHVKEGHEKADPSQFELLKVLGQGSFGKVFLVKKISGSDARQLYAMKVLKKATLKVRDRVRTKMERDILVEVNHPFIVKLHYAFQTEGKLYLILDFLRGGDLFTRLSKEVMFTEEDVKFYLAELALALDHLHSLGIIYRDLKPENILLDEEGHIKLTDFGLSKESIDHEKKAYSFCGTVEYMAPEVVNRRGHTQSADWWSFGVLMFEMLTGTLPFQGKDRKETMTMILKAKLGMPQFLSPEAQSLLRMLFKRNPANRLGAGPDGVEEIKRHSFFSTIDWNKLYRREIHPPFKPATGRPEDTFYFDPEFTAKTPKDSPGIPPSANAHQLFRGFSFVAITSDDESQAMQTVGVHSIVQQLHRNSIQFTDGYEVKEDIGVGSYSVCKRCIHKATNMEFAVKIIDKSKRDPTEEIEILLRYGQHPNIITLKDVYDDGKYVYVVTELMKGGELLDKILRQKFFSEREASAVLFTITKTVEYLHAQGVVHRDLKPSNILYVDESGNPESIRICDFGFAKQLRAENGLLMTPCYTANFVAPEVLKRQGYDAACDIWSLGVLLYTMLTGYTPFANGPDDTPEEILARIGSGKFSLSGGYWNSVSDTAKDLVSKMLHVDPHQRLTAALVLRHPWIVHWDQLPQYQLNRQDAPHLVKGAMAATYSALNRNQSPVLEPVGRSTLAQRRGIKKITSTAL

[20] = biological target: Protein kinase C epsilon type (Homo sapiens, UniProt Q02156); experiment: Binding affinity to recombinant human full length N-terminal GST-tagged PRKCE expressed in baculovirus expression system using PKC peptide as substrate incubated for 1 hr by TR-FRET assay
[21] = biological target: Serine/threonine-protein kinase MARK1 (Homo sapiens, UniProt Q9P0L2); experiment: Binding affinity to recombinant full-length N-terminal His-FLAG-tagged MARK1 (unknown origin) expressed in baculovirus infected Sf9 insect cells incubated for 1 hr by TR-FRET assay
Sequence of Serine/threonine-protein kinase MARK1 (Q9P0L2 whole entry): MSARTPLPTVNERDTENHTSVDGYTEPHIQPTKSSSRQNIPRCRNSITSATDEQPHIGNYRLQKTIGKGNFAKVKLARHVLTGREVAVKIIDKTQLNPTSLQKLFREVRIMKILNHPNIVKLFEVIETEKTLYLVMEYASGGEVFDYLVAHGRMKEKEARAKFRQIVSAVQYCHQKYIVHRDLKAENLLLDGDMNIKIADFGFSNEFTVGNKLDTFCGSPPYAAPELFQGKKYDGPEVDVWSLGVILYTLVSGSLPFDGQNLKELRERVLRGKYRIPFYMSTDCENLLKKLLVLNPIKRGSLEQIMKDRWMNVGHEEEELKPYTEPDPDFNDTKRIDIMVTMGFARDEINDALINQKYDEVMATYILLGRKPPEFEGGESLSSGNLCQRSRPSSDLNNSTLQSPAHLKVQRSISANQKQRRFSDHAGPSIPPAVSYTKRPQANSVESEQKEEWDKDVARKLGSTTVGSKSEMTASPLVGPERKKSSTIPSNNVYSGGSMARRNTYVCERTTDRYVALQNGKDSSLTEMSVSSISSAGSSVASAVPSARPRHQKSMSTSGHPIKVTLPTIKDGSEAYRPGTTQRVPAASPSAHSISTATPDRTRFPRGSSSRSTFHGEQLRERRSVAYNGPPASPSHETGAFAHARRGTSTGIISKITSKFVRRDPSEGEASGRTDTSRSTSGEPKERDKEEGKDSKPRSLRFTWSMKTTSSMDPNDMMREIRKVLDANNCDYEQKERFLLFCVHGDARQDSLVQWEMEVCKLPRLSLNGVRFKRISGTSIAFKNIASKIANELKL

[22] = biological target: Protein kinase C beta type (Homo sapiens, UniProt P05771); experiment: Binding affinity to recombinant full-length N-terminal His-FLAG-tagged PRKCB (unknown origin) expressed in baculovirus infected Sf9 insect cells incubated for 1 hr by TR-FRET assay

Row | SMILES | Kd [1] [nM] | Kd [2] [nM] | Kd [3] [nM] | Kd [4] [nM] | Kd [5] [nM] | Kd [6] [nM] | Kd [7] [nM] | Kd [8] [nM] | Kd [9] [nM] | Kd [10] [nM] | Kd [11] [nM] | Kd [12] [nM] | Kd [13] [nM] | Kd [14] [nM] | Kd (CDK7/Cyclin H/MNAT1) [nM] | Kd [15] [nM] | Kd [16] [nM] | Kd [17] [nM] | Kd [18] [nM] | Kd (CDK8/Cyclin C) [nM] | other results
1 | CO[C@@H]1[C@H](NCCOCCOCCOCCNC(=O)CCC2=[N+]3C(=Cc4c(C)cc(C)n4[B-]3(F)F)C=C2)C[C@H]2O[C@]1(C)n1c3ccccc3c3c4c(c5c6ccccc6n2c5c31)C(=O)NC4 | 759 | 601 | 268 | 30 | 531 | 436 | 258 | 674 | 352 | 101 | 279 | 332 | 148 | 107 | 894 | 930 | 315 | 17 | 7 | 299 | Kd [19]: 4 nM; Kd [20]: 41 nM; Kd [21]: 9 nM; Kd [22]: 65 nM
2 | CO[C@@H]1[C@H](N(C)CCOCCOCCOCCNC(=O)CCC2=[N+]3C(=Cc4c(C)cc(C)n4[B-]3(F)F)C=C2)C[C@H]2O[C@]1(C)n1c3ccccc3c3c4c(c5c6ccccc6n2c5c31)C(=O)NC4 | > 2000 | > 2000 | 643 | 61 | 947 | 767 | 367 | 888 | 445 | 119 | 324 | 372 | 154 | 108 | 819 | 812 | 245 | 9 | 4 | 148 | Kd [19]: 2 nM; Kd [20]: 15 nM; Kd [21]: 3 nM; Kd [22]: 17 nM
